Test [1] has as its target T1, progestin receptor from rabbit uterus (Oryctolagus cuniculus, UniProt P06186).
T1 construct: Cytosolic progestin receptor were obtained by mixing rabbit uterine tissue with a Tris buffer; from tissue; host or cells: rabbit uterus cytosol
Description: Progestin receptor binding (3H-R5020 displacement). The settings on record: rabbit uterine cytosol, 4° C., 18 h, read-out: IC50: Binding affinity for the progestin receptor from rabbit uterus. The procedure: A progestin initiates a biological response by first binding to a progestin receptor. Affinity for progestin receptors was determined by measuring the ability of compounds to displace a progestin radioligand from those receptors in vitro. Cytosolic progestin receptor were obtained by mixing rabbit uterine tissue with a Tris buffer [0.1M Tris-Hcl, 1 mM Na2 EDTA, 1 mM dithiothreotol, 1 mM sodium molybdate, 1% glycerol, pH 7.4]. The tissue/buffer mixture was homogenized under ice-cold conditions. The homogenate was then centrifuged and the supernatant (cytosol preparation) was decanted and stored at -70° C. and thawed prior to use. The competitive binding assay was performed by mixing ^3 H-R5020, a progestin radioligand, with cytosol preparation and various concentrations of test compounds (prepared in DMSO with a final 5% DMSO concentration). This mixture was then incubated at 4° C. for about 18 hours. Non-specific binding was determined using an unlabelled ligand in excess. After the incubation period, the radioligand bound to receptor was separated from free radioligand using dextran-coated charcoal. The amount of bound radioligand was then determined by liquid scintillation counting. The data were expressed as the concentration of test compound that displaced 50% of the radioligand from the receptor (IC50)
Aspects of the application used in this procedure are described in the following: J. L. McGuire et al., Biochemistry 13, 319, 1974.

Test [2] has as its system mouse (MC3T3-E1) and human (TE-85) osteoblast-line cells. The class given is cell-based. The text has this: Compounds of the present invention have utility to treat osteoporosis through enhancement of bone calcification rather than traditional approaches which generally involve inhibition of bone degeneration or resorption. The compounds of the present invention have been evaluated as stimulators of proliferation of osteoblast cell and chick calivaria bone organ culture which is predictive of enhancement of bone mass and bone formation in vivo.
The action of select compounds to stimulate osteoblast growth was measured in culture by estimating the rate of DNA synthesis by the rate of ^3 H-thymidine incorporation into DNA. Only cells undergoing mitosis synthesized new DNA and thus only these cells incorporated the radiolabelled DNA-specific thymidine. The stimulation of the proliferation and differentiation of bone-forming cells, osteoblasts, was a prerequisite for an increase in bone formation and bone mass. The ability of agents to increase osteoblast proliferation and differentiation can be predicted by their action on cultured osteoblast-line cells in vitro. In this test, mouse (MC3T3-E1) and human (TE-85) osteoblast-line cells (American Type Tissue Culture Collection, #CRL 1543, Rockville, Md. cloned by Sudo et al., Koriyama, Japan) were cultured in vitro and the effect of various agents were tested on osteoblast cell proliferation. Cells were harvested from large culture flasks where they were allowed to grow to near confluency using trypsin. The cells were plated into 96 well culture plates, 1600 cells in 100 μL per well in Dulbencos Modified Eagle's Medium (DMEM) with 25 mM HEPES buffer, L-glutamine (584 mg/L); D-glucose (4.5 g/L) supplemented with fetal bovine sera (10%); penicillin (100 units/mL) and streptomycin (100 mcg/mL); sodium pyruvate (10 μM final concentration). The cells were allowed to plate overnight in DMEM containing 10% fetal bovine sera at 37° C. in an atmosphere of 5% CO2/95% air. Following their placement into 96 well culture plates all the osteoblast-line cells, either the MC3T3-E1 or the TE-85 cell lines, were allowed an additional 24 hours preincubation period in media containing only 0.1% fetal bovine sera.
Twenty hours later, a 20 μL aliquot of media containing 0.4 μCi of ^3 H-thymidine was added to each culture well. The cells were then incubated an additional 4 hours. The incubation was terminated by aspirating the media and washing with HBSS (Hank's Balanced Salt Solution). The cells were then treated with 100 μL of 0.5% trypsin and 5.3 mM EDTA for 30 minutes at room temperature. The cells were then aspirated onto glass fiber filter and washed with water. The radioactivity on the filters was quantified by liquid scintillation spectroscopy. The rate of ^3 H-thymidine incorporation into DNA was then utilized as an index of cell proliferation. The results are shown in Table 13 expressed as % times control where the control is 100%. […]

Here are results for 44 compounds from patent US5684151A, “1-arylsulphonyl, arylcarbonyl and 1-arylphosphonyl-3-phenyl-1,4,5,6-tetrahydropyridazines” (priority 1995, dated 1997).

Each structure is given as a SMILES string. Like-named read-outs stand apart in the source and are kept apart here.

T1 sequence (P06186 whole entry): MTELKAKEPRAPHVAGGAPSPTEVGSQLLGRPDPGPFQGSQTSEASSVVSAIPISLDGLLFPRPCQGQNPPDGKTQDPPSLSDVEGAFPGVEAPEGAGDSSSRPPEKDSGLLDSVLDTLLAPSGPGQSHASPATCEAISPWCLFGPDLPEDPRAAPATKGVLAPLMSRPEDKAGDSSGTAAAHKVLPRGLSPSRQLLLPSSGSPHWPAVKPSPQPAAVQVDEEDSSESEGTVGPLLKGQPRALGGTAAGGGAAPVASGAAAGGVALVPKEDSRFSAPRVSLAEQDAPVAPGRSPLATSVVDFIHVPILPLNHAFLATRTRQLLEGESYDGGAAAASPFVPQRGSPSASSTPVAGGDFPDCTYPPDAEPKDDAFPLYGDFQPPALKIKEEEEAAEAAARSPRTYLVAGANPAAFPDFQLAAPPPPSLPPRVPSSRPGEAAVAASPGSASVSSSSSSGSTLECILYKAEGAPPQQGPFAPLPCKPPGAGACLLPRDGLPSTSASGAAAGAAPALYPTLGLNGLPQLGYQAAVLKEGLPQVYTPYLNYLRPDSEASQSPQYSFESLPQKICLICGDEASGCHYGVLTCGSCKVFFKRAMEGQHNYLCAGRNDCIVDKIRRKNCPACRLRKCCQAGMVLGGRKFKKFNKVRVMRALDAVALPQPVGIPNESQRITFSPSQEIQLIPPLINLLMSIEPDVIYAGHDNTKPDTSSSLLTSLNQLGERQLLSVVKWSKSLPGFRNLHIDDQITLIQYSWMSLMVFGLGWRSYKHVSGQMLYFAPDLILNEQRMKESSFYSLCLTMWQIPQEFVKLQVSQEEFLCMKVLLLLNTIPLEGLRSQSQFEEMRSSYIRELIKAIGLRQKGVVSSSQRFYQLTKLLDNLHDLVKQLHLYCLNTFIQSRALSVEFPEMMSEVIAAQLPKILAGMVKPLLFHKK

By IC50 is commonly meant the point on the concentration scale where inhibition reaches its midpoint. On to `O=S(=O)(c1ccc(I)cc1)N1CCCC(c2ccc(Cl)cc2)=N1` [Compound 16], for which, in test [1], the IC50 turned out to be 4.2 nM.

As to `O=S(=O)(c1ccc(F)cc1)N1CCCC(c2ccc(Cl)cc2)=N1` [Compound 17], the IC50 in test [1] was found to be 48 nM.

Regarding `O=S(=O)(c1ccc(F)cc1)N1CCCC(c2ccc(F)cc2)=N1` [Compound 18], in test [1], the IC50 worked out at 204 nM.

Take `O=S(=O)(c1ccc(Br)cc1)N1CCCC(c2ccc(F)cc2)=N1` [Compound 19]: in test [1], the IC50 worked out at 61 nM.

Consider `O=S(=O)(c1ccc(I)cc1)N1CCCC(c2ccc(F)cc2)=N1` [Compound 20], for which the half-inhibitory concentration (IC50) in test [1] turned out to be 56 nM.

As to `O=[N+]([O-])c1ccc(S(=O)(=O)N2CCCC(c3ccc(F)cc3)=N2)c([N+](=O)[O-])c1` [Compound 23], in test [1], the IC50 is 3000 nM.

For the compound `O=[N+]([O-])c1ccccc1S(=O)(=O)N1CCCC(c2ccc(F)cc2)=N1` [Compound 24], in test [1], the IC50 stood at 308 nM.

`COC(=O)c1ccccc1S(=O)(=O)N1CCCC(c2ccc(F)cc2)=N1` [Compound 26]: in test [1], the IC50 is 451 nM.

For the compound `O=[N+]([O-])c1ccccc1S(=O)(=O)N1CCCC(c2ccc(Cl)cc2)=N1` [Compound 27], the IC50 in test [1] amounted to 65 nM.

`O=[N+]([O-])c1ccc(S(=O)(=O)N2CCCC(c3ccc(Cl)cc3)=N2)c([N+](=O)[O-])c1` [Compound 28]: the IC50 in test [1] is 3140 nM.

On to `COC(=O)c1ccccc1S(=O)(=O)N1CCCC(c2ccc(Cl)cc2)=N1` [Compound 29], for which the IC50 in test [1] is 244 nM.

Turning to `O=S(=O)(c1ccc(Cl)c(Cl)c1)N1CCCC(c2ccc(Cl)cc2)=N1` [Compound 30], in test [1], the IC50 amounted to 22 nM.

In the case of `O=S(=O)(c1cc(Cl)cc(Cl)c1)N1CCCC(c2ccc(Cl)cc2)=N1` [Compound 31], the IC50 in test [1] came to 4 nM.

Consider `O=S(=O)(c1ccc(C(F)(F)F)cc1)N1CCCC(c2ccc(Cl)cc2)=N1` [Compound 36], for which the IC50 in test [1] is 11.5 nM.

As for `O=S(=O)(c1ccccc1)N1CCCC(c2ccc(Cl)cc2)=N1` [Compound 37], the IC50 in test [1] is 12.9 nM.

As to `O=S(=O)(c1ccc(Cl)cc1)N1CCCC(c2ccccc2)=N1` [Compound 48], the IC50 in test [1] was 266 nM.

In the case of `O=S(=O)(c1ccc(Br)cc1)N1CCCC(c2ccccc2)=N1` [Compound 49], in test [1], the IC50 worked out at 127 nM.

Regarding `O=S(=O)(c1ccc(I)cc1)N1CCCC(c2ccccc2)=N1` [Compound 50], the IC50 in test [1] was determined as 316 nM.

On to `O=S(=O)(c1cc(Cl)ccc1Cl)N1CCCC(c2ccccc2)=N1` [Compound 52], for which the concentration for half-maximal inhibition (IC50) in test [1] amounted to 42 nM.

Regarding `O=[N+]([O-])c1ccc(S(=O)(=O)N2CCCC(c3ccccc3)=N2)cc1` [Compound 53], in test [1], the IC50 was 2200 nM.

As to `O=S(=O)(c1ccc(F)cc1)N1CCCC(c2ccccc2)=N1` [Compound 54], in test [1], the IC50 is 780 nM.

On to `CCCCc1ccc(S(=O)(=O)N2CCCC(c3ccccc3)=N2)cc1` [Compound 55], for which the IC50 in test [1] is 21.9 nM.

Turning to `O=S(=O)(c1cccc2ccccc12)N1CCCC(c2ccccc2)=N1` [Compound 56], the IC50 in test [1] came out at 85.2 nM.

`O=[N+]([O-])c1cc(S(=O)(=O)N2CCCC(c3ccccc3)=N2)ccc1Cl` [Compound 58]: in test [1], the IC50 stood at 444 nM.

As for `O=S(=O)(c1ccc(F)cc1F)N1CCCC(c2ccccc2)=N1` [Compound 59], the IC50 in test [1] was found to be 455 nM.

As for `O=S(=O)(c1ccc(Cl)c(Cl)c1)N1CCCC(c2ccccc2)=N1` [Compound 60], in test [1], the IC50 was determined as 191 nM.

For the compound `O=S(=O)(c1ccc(C(F)(F)F)cc1)N1CCCC(c2ccccc2)=N1` [Compound 61], in test [1], the IC50 was found to be 435 nM.

Consider `O=[N+]([O-])c1cccc(S(=O)(=O)N2CCCC(c3ccccc3)=N2)c1` [Compound 62], for which the IC50 in test [1] was 157 nM.

Consider `O=S(=O)(c1ccccc1)N1CCCC(c2ccccc2)=N1` [Compound 66], for which, in test [1], the IC50 is 375 nM.

Turning to `O=[N+]([O-])c1cc(S(=O)(=O)N2CCCC(c3ccc(Cl)cc3)=N2)ccc1Cl` [Compound 67], the IC50 in test [1] stood at 126 nM.

`O=S(=O)(c1cc(Cl)c(Cl)cc1Cl)N1CCCC(c2ccc(Cl)cc2)=N1` [Compound 68]: the IC50 in test [1] turned out to be 13.4 nM.

As to `CCCCc1ccc(C2=NN(S(=O)(=O)c3cccc([N+](=O)[O-])c3)CCC2)cc1` [Compound 70], the IC50 in test [1] came to 10000 nM.

Consider `CCCCc1ccc(C2=NN(S(=O)(=O)c3ccc(CCCC)cc3)CCC2)cc1` [Compound 75], for which, in test [1], the IC50 amounted to 10000 nM.

Regarding `CCCCc1ccc(C2=NN(S(=O)(=O)c3ccccc3)CCC2)cc1` [Compound 76], the IC50 in test [1] came out at 10000 nM.

Regarding `O=S(=O)(c1ccccc1)N1CCCC(c2ccc(Cl)c(C(F)(F)F)c2)=N1` [Compound 83], the IC50 in test [1] worked out at 4.83 nM.

As for `O=S(=O)(c1cc(Cl)ccc1Cl)N1CCCC(c2cccc(Cl)c2)=N1` [Compound 91], the IC50 in test [1] is 2.39 nM.

Take `Cc1ccc(S(=O)(=O)N2CCCC(c3cccc(Cl)c3)=N2)cc1` [Compound 92]: in test [1], the IC50 turned out to be 23.9 nM.

`O=S(=O)(c1ccc(Cl)cc1)N1CCCC(c2cccc(Cl)c2)=N1` [Compound 93]: in test [1], the IC50 is 11.1 nM.

For the compound `O=S(=O)(c1ccc(I)cc1)N1CCCC(c2cccc(Cl)c2)=N1` [Compound 96], the IC50 in test [1] came out at 12.1 nM.

As to `COP(=O)(c1ccccc1)N1CCCC(c2ccc(F)cc2)=N1` (centres unmarked) [Compound 258], the “Osteoblast Cell Proliferation, 3H-thymidine incorporation vs control (100%)” value (from here on “Osteoblast Cell Proliferation … (100%)”) was 107% in test [2] (10^-6); 107% in test [2] (10^-7); 108% in test [2] (10^-8); 107% in test [2] (10^-9); 98% in test [2] (10^-10).

`CCOP(=O)(c1ccccc1)N1CCCC(c2ccc(F)cc2)=N1` (centres unmarked) [Compound 259]: the “Osteoblast Cell Proliferation … (100%)” value in test [2] (10^-6) is 116%; in test [2] (10^-7) it was 96%; in test [2] (10^-8) it was 102%; in test [2] (10^-9), 121%; in test [2] (10^-10), 106%.

Consider `COP(=O)(c1ccccc1)N1CCCC(c2ccc(Br)cc2)=N1` (centres unmarked) [Compound 260], for which the “Osteoblast Cell Proliferation … (100%)” value in test [2] (10^-6) turned out to be 100%; in test [2] (10^-7), 115%; in test [2] (10^-8) it was 105%; in test [2] (10^-9), 99%; in test [2] (10^-10) it was 90%.

In the case of `Nc1c(Br)cc(C2=NN(C(=O)c3ccc(Cl)c(Cl)c3)CCC2)cc1Br` [Compound 265, (3-4-Amino-3,5-dibromophenyl)-1-(3,4-dichlorobenzoyl)-1,4,5,6-tetrahydropyridazine], the “Osteoblast Cell Proliferation … (100%)” value was 110% in test [2] (10^-7), 112% in test [2] (10^-8), 112% in test [2] (10^-9) and 115% in test [2] (10^-10).

Regarding `CS(=O)(=O)c1ccc(S(=O)(=O)N2CCCC(c3ccc(Cl)c(Cl)c3)=N2)cc1` [Compound 275, 3-(3,4-Dichlorophenyl)-1-(4-methylsulfonylbenzenesulfonyl)-1,4,5,6-tetrahydropyridazine], the “Osteoblast Cell Proliferation … (100%)” value is 145% in test [2] (10^-7), 153% in test [2] (10^-8), 128% in test [2] (10^-9) and 136% in test [2] (10^-10).
